Laboratory results taken from PMC3480435, “Identification, Expression and Activity Analyses of Five Novel Duck Beta-Defensins” (PLoS ONE, 2012).

How the values were obtained:
[1] = test system: 12 bacteria (four Gram-positive and eight Gram-negative strains); conditions: colony counting, 10-100 µg/mL in PBS, 3 h preincubation then 12-18 h; % of CFU of unexposed bacteria; mean of three independent experiments, three replicates each; Fig. 3
Description: The antimicrobial activities of both rAvBD and sAvBD were determined by colony counting assay. Briefly, a 10 µL of diluted bacterial culture (diluted 1000-fold in the appropriate medium) was treated with 250 µL of rAvBD or sAvBD (0 to 100 µg/mL in PBS) in polypropylene microtiter plates and preincubated for 3 h at conditions suited to the investigated strain; 100 µL of minimal medium was added after 3 h and the plates were incubated for 12–18 h further. Then, the sample was rediluted 100-to-10^6-fold in minimal medium, transferred to TSA plates and colonies were counted after 24 h of incubation. Bactericidal activity was calculated as a percentage of CFU of bacteria not exposed to antimicrobial peptides but subjected to the same experimental conditions. Results from the antimicrobial assay represent the mean of the three independent experiments, with three replicates per experiment.

[2] = test system: DHV-1 strain Du/CH/LBJ/090809; conditions: DHV-1 serially diluted, treated with equal volume of 300 µg/mL protein in PBS, 37°C 60 min; 11-day-old SPF duck embryos, observed 7 days; three independent experiments, five replicates
Description: Briefly, the DHV-1 (10^8 median embryo infectious doses, EID50) was serially diluted 10-fold and treated with equal volumes of GST or rAvBDs (300 µg/mL in PBS) at 37°C for 60 min. The mixture was inoculated into 11-day-old specific pathogen free (SPF) duck embryos, with 200 µL administered per duck. The inoculated duck embryos were incubated at 37°C and observed for 7 days. Mortality was recorded every 8 h. […] All antiviral activity assays were performed in three independent experiments, with five replicates per experiment.

glutathione-S-transferase [GST]
bactericidal activity against all of the bacterial strains investigated [1]: no bactericidal activity | survival time of duck embryos inoculated with treated DHV [2]: little effect
